Paper PMC5866837, “Towards a generic physiologically based kinetic model to predict in vivo uterotrophic responses in rats by reverse dosimetry of in vitro estrogenicity data” (Archives of Toxicology, 2017)
Where two headings read alike, the source gives them in different places.

Columns and labels:
[1] = Substrate depletion approach, in vitro clearance (CLint) with rat liver S9; assay type: in vitro ADME; details: for microsomal CLint at 3 µM / CLint in liver S9 at 3 µM: Sprague-Dawley, rat, liver S9 fraction; for CLint in liver S9 at 3 µM: 3 µM substrate
Source text: To develop a generic model, a fast and efficient approach needs to be applied to determine the hepatic clearance. To this end, a substrate depletion approach was used, as described by others (Jones and Houston [2004]; Obach [1999]; Obach and Reed-Hagen [2002]). Metabolic breakdown of the parent compound, referred to as “substrate depletion” is used to measure in vitro CLint of the parent compound, where the consumption rate of the parent compound using hepatic microsomes, hepatic S9 fractions or hepatocytes, is measured over a range of incubation times under linear conditions with respect to protein concentration and substrate concentration (Jones and Houston [2004]).
The CLint of the parent compounds via phase I and phase II metabolism was determined in incubations with liver S9 fraction from both male and female Sprague–Dawley rats, in the presence of all relevant co-factors NADPH, UDPGA, PAPS and acetyl CoA. To investigate whether the in vitro CLint value derived from incubations for individual reactions (with individual co-factors) is similar as the CLint value derived from incubations with all the co-factors together in one mixture, two approaches were applied. In the first approach, the parent compound was incubated with individual co-factors in Eppendorf tubes applying a final volume of 200 µL containing either 3 mM NADPH, 5 mM UDPGA (also including 5 mM MgCl2 and 0.025 mg/ml alamethicin), 0.2 mM PAPS, or 0.5 mM acetyl CoA, with 0.5 mg/ml liver S9 in 0.1 M potassium phosphate (pH 7.4) buffer. After pre-incubating the mixtures at 37 °C for 1 min, the reactions were started by adding 3 µM (final concentration) of the parent compound from a 100 times concentrated stock solution dissolved in DMSO. In the second approach, it was tested whether the methodology could be simplified by adding all the co-factors to one incubation mixture and the parent compound after pre-incubation. For both approaches, 14 time points were selected at which the reaction was terminated, being 0, 1, 2, 3, 4, 5, 7, 8.5, 10, 15, 20, 25, 30 and 45 min. To terminate the reaction 100 µL cold acetonitrile (ACN) was added to the mixture and the Eppendorf tubes were put on ice for 30 min. Subsequently, tubes were centrifuged at 15,000 rpm for 5 min (CT 15RE, Hitachi Koki Co., Ltd) and the supernatant was collected for UPLC analysis. For each incubation time point, a corresponding control was included, which was an incubation performed in the absence of co-factor(s). All incubations were performed in triplicate in three independent studies.
The concentration of the parent compound was quantified for all the incubations using UPLC analysis performed as described below. The ratio of remaining parent compound concentration between incubation sample (C compound) and the control without co-factor (C control) was calculated for each incubation time. Subsequently, the depletion curve of the parent compound [ln(C compound/C control)] against time was derived as described before (Jones and Houston [2004]; Obach [1999]; Obach and Reed-Hagen [2002]). The slope of the linear part of the depletion curve represents the elimination rate constant (k, min^−1) for elimination of the parent compound. Using the following equation, the in vitro clearance (CLint, in vitro) of the parent compound can be estimated: CLint, in vitro (µL/min/mg protein) = V (µL)/P (mg) × k (min^−1) (Obach [1999]; Sjögren et al. [2009]). V represents volume (µL) of incubation mixture and P is the protein amount (mg) in the mixture. The in vitro CLint value derived from incubations with all co-factors together in one mixture (approach 2) was compared with the sum of the CLint values derived from incubations with a single co-factor (approach 1). The in vitro CLint of the parent compound was scaled to a whole liver, assuming that the S9 protein concentration in the rat liver is 87 g/kg liver (Chiu and Ginsberg [2011]).
For BPA, the analytical method was slightly changed based on the method for E2. […]

Caco-2 = details: cited from earlier work
[2] = female, pH 7.4, female Sprague–Dawley rat liver S9, all co-factors (NADPH, UDPGA, PAPS, acetyl CoA) in one mixture, read-out: Female CLint
[3] = male, pH 7.4, male Sprague–Dawley rat liver S9, all co-factors (NADPH, UDPGA, PAPS, acetyl CoA) in one mixture, read-out: Male CLint
[4] = male, pH 7.4, male Sprague–Dawley rat liver S9, individual co-factor NADPH
[5] = male, pH 7.4, male Sprague–Dawley rat liver S9, individual co-factor PAPS
[6] = male, pH 7.4, male Sprague–Dawley rat liver S9, individual co-factor UDPGA
[7] = male, pH 7.4, male Sprague–Dawley rat liver S9, read-out: CLint, SUM of incubations with individual co-factors

Row | Structure (SMILES) | CLint fold higher for female than for male rat liver S9 ([1]; all co-factors in one mixture) [fold] | microsomal CLint at 3 µM [1, 2] [µL/min/mg] | microsomal CLint at 3 µM [1, 3] [µL/min/mg] | CLint in liver S9 at 3 µM [1, 4] [µL/min/mg] | CLint in liver S9 at 3 µM [1, 5] [µL/min/mg] | CLint in liver S9 at 3 µM [1, 6] [µL/min/mg] | microsomal CLint at 3 µM [1, 7] [µL/min/mg] | Papp, Caco-2 (Caco-2; PBK model code, ref Yoshkawa et al. 2002) [x1E-6 cm/sec] | P app, Caco-2 (Caco-2; ref Yoshikawa et al. [2002]) [×10⁻⁶ cm/s] | Female CLint ([1]; female Sprague–Dawley rat liver S9, all co-factors (NADPH, UDPGA, PAPS, acetyl CoA) in one mixture) [µl/min/mg protein]
1 | CC(C)(c1ccc(O)cc1)c1ccc(O)cc1 [BPA, bisphenol A] | 1.1 | 432 ± 12.5 | 392 ± 6.7 | 60 ± 4.8 | 3.4 ± 2.1 | 340 ± 7.8 | 403 ± 9.4 | 20 | 20 | 
2 | C[C@]12CC[C@@H]3c4ccc(O)cc4CC[C@H]3[C@@H]1CC[C@@H]2O [E2, 17β-estradiol] |  | 65.5 | 175 ± 13.3 | 155 ± 26.7 | 4.4 ± 1.6 | 23.3 ± 0.9 | 182 ± 26.8 |  |  | 65.5 ± 12.3
